Patent US20210221866A1, “PROTEASE-RESISTANT LIPIDATED GLP-1 ANALOGS” (MEDIMMUNE LIMITED, priority 2015, published 2021)
Like-named read-outs stand apart in the source and are kept apart here. Numbered stars: 1 amine (or outer) side, 2 acyl side, 3 side chain; on linkers, the order of the positions; unused ones are H or OH. Square brackets hold non-standard residues; d marks the D form. Side chains are listed from the residue outwards. Peptide text beside a SMILES is read from it. * marks the point of attachment. C18 diacid = O=C(O)CCCCCCCCCCCCCCCCC(=O)*; γGlu = O=C(O)[C@H](CCC(=O)[*:2])N[*:1]; Palmitoyl = CCCCCCCCCCCCCCCC(=O)*; αMeF = C[C@](N)(Cc1ccccc1)C(=O)O; αMeK = C[C@](N)(CCCCN)C(=O)O; αMeS = C[C@](N)(CO)C(=O)O; AEEA = NCCOCCOCC(=O)O; Aib = CC(C)(N)C(=O)O

Target: T1, human GLP-1 receptor (GLP-1R) (Homo sapiens, UniProt P43220)
T1 construct: expressed in transfected cells; host or cells: HEK293 cells or CHO cells
T1 sequence (P43220 24-463): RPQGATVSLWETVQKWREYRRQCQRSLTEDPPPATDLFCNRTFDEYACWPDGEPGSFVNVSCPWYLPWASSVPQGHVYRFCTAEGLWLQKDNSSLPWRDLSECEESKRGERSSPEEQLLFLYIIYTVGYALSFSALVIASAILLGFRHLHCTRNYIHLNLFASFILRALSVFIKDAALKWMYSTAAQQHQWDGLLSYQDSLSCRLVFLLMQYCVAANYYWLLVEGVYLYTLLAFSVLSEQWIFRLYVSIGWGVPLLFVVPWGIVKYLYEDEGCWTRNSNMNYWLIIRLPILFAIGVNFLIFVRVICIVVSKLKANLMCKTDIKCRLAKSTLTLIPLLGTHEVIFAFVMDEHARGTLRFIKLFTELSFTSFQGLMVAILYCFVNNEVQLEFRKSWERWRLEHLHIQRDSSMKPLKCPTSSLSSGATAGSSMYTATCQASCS
Test: cAMP assay, human GLP-1R cells
Format: cell-based
Details: cAMP activity
Experimental: Sample dilutions are made in duplicate.
A frozen cryo-vial of cells expressing the receptor of interest is thawed rapidly in a water-bath, transferred to pre-warmed assay buffer and spun at 240×g for 5 minutes. Cells are re-suspended in assay buffer at a batch-dependent optimized concentration (e.g. hGCGR cells at 2×10^5 cells/ml, hGLP-1R and hGIPR cells at 1×10^5 cells/ml).
To this, 5 μL cell suspension is added and the plates incubated at room temperature for 30 minutes.
cAMP levels are measured using a commercially available cAMP dynamic 2 HTRF kit (Cisbio, Cat #62AM4PEJ), following the two step protocol as per manufacturer's recommendations. In brief; anti-cAMP cryptate (donor fluorophore) and cAMP-d2 (acceptor fluorophore) are made up separately by diluting each 1/20 in conjugate & lysis buffer provided in the kit. 5 μL anti-cAMP cryptate is added to wells of the assay plate, and 5 μL cAMP-d2 is added to wells except non-specific binding (NSB) wells, to which conjugate and lysis buffer are added. […] EC50 values of the synthetic peptides determined in cAMP assays are then determined.
Data is transformed to % Delta F as described in the manufacturer's guidelines and analyzed by 4-parameter logistic fit to determine EC50 values. […] To compare the balance of activities at the GLP-1R and GCGR between different peptides and across different conditions, these can be correlated, where the EC50's are related to those of comparator peptides.

[1] = mean of n1 and n2, read-out: Mean pM GLP-1R
[2] = second determination (n2), read-out: Primary assay EC50 GLP-1R n2

## CCCCCCCCCCCCCCCC(=O)N[C@@H](CCC(=O)NCCCC[C@H](NC(=O)[C@](C)(Cc1ccccc1)NC(=O)[C@H](C)NC(=O)[C@@H](NC(=O)[C@](C)(Cc1ccccc1)NC(=O)[C@H](CCC(=O)O)NC(=O)[C@](C)(CCCCN)NC(=O)[C@H](C)NC(=O)[C@H](C)NC(=O)[C@H](CCC(=O)O)NC(=O)CNC(=O)[C@H](CCC(=O)O)NC(=O)[C@H](CC(C)C)NC(=O)[C@](C)(Cc1ccccc1)NC(=O)[C@H](CO)NC(=O)[C@](C)(CO)NC(=O)[C@@H](NC(=O)[C@H](CC(=O)O)NC(=O)[C@H](CO)NC(=O)[C@@H](NC(=O)[C@](C)(Cc1ccccc1)NC(=O)[C@H](CO)NC(=O)CNC(=O)[C@H](CCC(=O)O)NC(=O)C(C)(C)NC(=O)[C@@H](N)Cc1c[nH]cn1)[C@@H](C)O)C(C)C)[C@@H](C)CC)C(=O)N[C@H](C(=O)N[C@@](C)(CCCCN)C(=O)NCC(=O)NCC(N)=O)C(C)C)C(=O)O [compound 74] (H-H[Aib]EGS[αMeF]TSDV[αMeS]S[αMeF]LEGEAA[αMeK]E[αMeF]IA[αMeF]K([γGlu-Palmitoyl])V[αMeK]GG-NH2; N-terminus assumed)
[1]
  EC50: 2.1 pM

## CCCCCCCCCCCCCCCC(=O)N[C@@H](CCC(=O)NCCCC[C@H](NC(=O)[C@](C)(Cc1ccccc1)NC(=O)[C@H](CCC(=O)O)NC(=O)[C@](C)(CCCCN)NC(=O)[C@H](C)NC(=O)[C@H](C)NC(=O)[C@H](CCC(=O)O)NC(=O)CNC(=O)[C@H](CCC(=O)O)NC(=O)[C@H](CC(C)C)NC(=O)[C@](C)(Cc1ccccc1)NC(=O)[C@H](CO)NC(=O)[C@](C)(CO)NC(=O)[C@@H](NC(=O)[C@H](CC(=O)O)NC(=O)[C@H](CO)NC(=O)[C@@H](NC(=O)[C@](C)(Cc1ccccc1)NC(=O)[C@H](CO)NC(=O)CNC(=O)[C@H](CCC(=O)O)NC(=O)C(C)(C)NC(=O)[C@@H](N)Cc1c[nH]cn1)[C@@H](C)O)C(C)C)C(=O)N[C@@H](C)C(=O)N[C@@](C)(Cc1ccccc1)C(=O)N[C@H](C(=O)N[C@H](C(=O)N[C@@](C)(CCCCN)C(=O)NCC(=O)NCC(N)=O)C(C)C)C(C)C)C(=O)O [compound 77] (H-H[Aib]EGS[αMeF]TSDV[αMeS]S[αMeF]LEGEAA[αMeK]E[αMeF]K([γGlu-Palmitoyl])A[αMeF]VV[αMeK]GG-NH2; N-terminus assumed)
[1]
  EC50: 1860 pM

## CCCCCCCCCCCCCCCC(=O)N[C@@H](CCC(=O)NCCCC[C@H](NC(=O)[C@H](CCC(=O)O)NC(=O)[C@H](CC(C)C)NC(=O)[C@](C)(Cc1ccccc1)NC(=O)[C@H](CO)NC(=O)[C@](C)(CO)NC(=O)[C@@H](NC(=O)[C@H](CC(=O)O)NC(=O)[C@H](CO)NC(=O)[C@@H](NC(=O)[C@](C)(Cc1ccccc1)NC(=O)[C@H](CO)NC(=O)CNC(=O)[C@H](CCC(=O)O)NC(=O)C(C)(C)NC(=O)[C@@H](N)Cc1c[nH]cn1)[C@@H](C)O)C(C)C)C(=O)N[C@@H](CCC(=O)O)C(=O)N[C@@H](C)C(=O)N[C@@H](C)C(=O)N[C@@](C)(CCCCN)C(=O)N[C@@H](CCC(=O)O)C(=O)N[C@@](C)(Cc1ccccc1)C(=O)N[C@H](C(=O)N[C@@H](C)C(=O)N[C@@](C)(Cc1ccccc1)C(=O)N[C@H](C(=O)N[C@H](C(=O)N[C@@](C)(CCCCN)C(=O)NCC(=O)NCC(N)=O)C(C)C)C(C)C)[C@@H](C)CC)C(=O)O [compound 84] (H-H[Aib]EGS[αMeF]TSDV[αMeS]S[αMeF]LEK([γGlu-Palmitoyl])EAA[αMeK]E[αMeF]IA[αMeF]VV[αMeK]GG-NH2; N-terminus assumed)
[1]
  EC50: 8 pM
[2]
  EC50: 8.1 pM

## CC[C@H](C)[C@H](NC(=O)[C@](C)(Cc1ccccc1)NC(=O)[C@H](CCC(=O)O)NC(=O)[C@](C)(CCCCN)NC(=O)[C@H](C)NC(=O)[C@H](C)NC(=O)[C@H](CCC(=O)O)NC(=O)CNC(=O)[C@H](CCC(=O)O)NC(=O)[C@H](CC(C)C)NC(=O)[C@](C)(Cc1ccccc1)NC(=O)[C@H](CO)NC(=O)[C@](C)(CO)NC(=O)[C@@H](NC(=O)[C@H](CC(=O)O)NC(=O)[C@H](CO)NC(=O)[C@@H](NC(=O)[C@](C)(Cc1ccccc1)NC(=O)[C@H](CO)NC(=O)CNC(=O)[C@H](CCC(=O)O)NC(=O)C(C)(C)NC(=O)[C@@H](N)Cc1c[nH]cn1)[C@@H](C)O)C(C)C)C(=O)N[C@@H](C)C(=O)N[C@@](C)(Cc1ccccc1)C(=O)N[C@H](C(=O)N[C@H](C(=O)N[C@@](C)(CCCCN)C(=O)N[C@@H](CCCCNC(=O)COCCOCCNC(=O)COCCOCCNC(=O)CC[C@H](NC(=O)CCCCCCCCCCCCCCCCC(=O)O)C(=O)O)C(=O)NCC(N)=O)C(C)C)C(C)C [compound 100] (H-H[Aib]EGS[αMeF]TSDV[αMeS]S[αMeF]LEGEAA[αMeK]E[αMeF]IA[αMeF]VV[αMeK]K([AEEA-AEEA-γGlu-C18 diacid])G-NH2; N-terminus assumed)
[1]
  EC50: 15 pM

## CC[C@H](C)[C@H](NC(=O)[C@](C)(Cc1ccccc1)NC(=O)[C@H](CCC(=O)O)NC(=O)[C@](C)(CCCCN)NC(=O)[C@H](C)NC(=O)[C@H](C)NC(=O)[C@H](CCC(=O)O)NC(=O)CNC(=O)[C@H](CCC(=O)O)NC(=O)[C@H](CC(C)C)NC(=O)[C@](C)(Cc1ccccc1)NC(=O)[C@H](CO)NC(=O)[C@](C)(CO)NC(=O)[C@@H](NC(=O)[C@H](CC(=O)O)NC(=O)[C@H](CO)NC(=O)[C@@H](NC(=O)[C@](C)(Cc1ccccc1)NC(=O)[C@H](CO)NC(=O)CNC(=O)[C@H](CCC(=O)O)NC(=O)C(C)(C)NC(=O)[C@@H](N)Cc1c[nH]cn1)[C@@H](C)O)C(C)C)C(=O)N[C@@H](C)C(=O)N[C@@H](CCCCNC(=O)COCCOCCNC(=O)COCCOCCNC(=O)CC[C@H](NC(=O)CCCCCCCCCCCCCCCCC(=O)O)C(=O)O)C(=O)N[C@H](C(=O)N[C@H](C(=O)N[C@@](C)(CCCCN)C(=O)NCC(=O)NCC(N)=O)C(C)C)C(C)C [compound 104]
[1]
  EC50: 5 pM

## CC[C@H](C)[C@H](NC(=O)[C@](C)(Cc1ccccc1)NC(=O)[C@H](CCC(=O)O)NC(=O)[C@H](CCCCNC(=O)COCCOCCNC(=O)COCCOCCNC(=O)CC[C@H](NC(=O)CCCCCCCCCCCCCCC(=O)O)C(=O)O)NC(=O)[C@H](C)NC(=O)[C@H](C)NC(=O)[C@H](CCC(=O)O)NC(=O)CNC(=O)[C@H](CCC(=O)O)NC(=O)[C@H](CC(C)C)NC(=O)[C@](C)(Cc1ccccc1)NC(=O)[C@H](CO)NC(=O)[C@](C)(CO)NC(=O)[C@@H](NC(=O)[C@H](CC(=O)O)NC(=O)[C@H](CO)NC(=O)[C@@H](NC(=O)[C@](C)(Cc1ccccc1)NC(=O)[C@H](CO)NC(=O)CNC(=O)[C@H](CCC(=O)O)NC(=O)C(C)(C)NC(=O)[C@@H](N)Cc1c[nH]cn1)[C@@H](C)O)C(C)C)C(=O)N[C@@H](C)C(=O)N[C@@](C)(Cc1ccccc1)C(=O)N[C@H](C(=O)N[C@H](C(=O)N[C@@](C)(CCCCN)C(=O)NCC(=O)NCC(N)=O)C(C)C)C(C)C [compound 109]
[1]
  EC50: 34 pM
[2]
  EC50: 34.6 pM

## CC[C@H](C)[C@H](NC(=O)[C@](C)(Cc1ccccc1)NC(=O)[C@H](CCC(=O)O)NC(=O)[C@](C)(CCCCN)NC(=O)[C@H](CCCCNC(=O)COCCOCCNC(=O)COCCOCCNC(=O)CC[C@H](NC(=O)CCCCCCCCCCCCCCCCC(=O)O)C(=O)O)NC(=O)[C@H](C)NC(=O)[C@H](CCC(=O)O)NC(=O)CNC(=O)[C@H](CCC(=O)O)NC(=O)[C@H](CC(C)C)NC(=O)[C@](C)(Cc1ccccc1)NC(=O)[C@H](CO)NC(=O)[C@](C)(CO)NC(=O)[C@@H](NC(=O)[C@H](CC(=O)O)NC(=O)[C@H](CO)NC(=O)[C@@H](NC(=O)[C@](C)(Cc1ccccc1)NC(=O)[C@H](CO)NC(=O)CNC(=O)[C@H](CCC(=O)O)NC(=O)C(C)(C)NC(=O)[C@@H](N)Cc1c[nH]cn1)[C@@H](C)O)C(C)C)C(=O)N[C@@H](C)C(=O)N[C@@](C)(Cc1ccccc1)C(=O)N[C@H](C(=O)N[C@H](C(=O)N[C@@](C)(CCCCN)C(=O)NCC(=O)NCC(N)=O)C(C)C)C(C)C [compound 110] (H-H[Aib]EGS[αMeF]TSDV[αMeS]S[αMeF]LEGEAK([AEEA-AEEA-γGlu-C18 diacid])[αMeK]E[αMeF]IA[αMeF]VV[αMeK]GG-NH2; N-terminus assumed)
[1]
  EC50: 62 pM

## CC[C@H](C)[C@H](NC(=O)[C@](C)(Cc1ccccc1)NC(=O)[C@H](CCC(=O)O)NC(=O)[C@](C)(CCCCN)NC(=O)[C@H](C)NC(=O)[C@H](CCCCNC(=O)COCCOCCNC(=O)COCCOCCNC(=O)CC[C@H](NC(=O)CCCCCCCCCCCCCCCCC(=O)O)C(=O)O)NC(=O)[C@H](CCC(=O)O)NC(=O)CNC(=O)[C@H](CCC(=O)O)NC(=O)[C@H](CC(C)C)NC(=O)[C@](C)(Cc1ccccc1)NC(=O)[C@H](CO)NC(=O)[C@](C)(CO)NC(=O)[C@@H](NC(=O)[C@H](CC(=O)O)NC(=O)[C@H](CO)NC(=O)[C@@H](NC(=O)[C@](C)(Cc1ccccc1)NC(=O)[C@H](CO)NC(=O)CNC(=O)[C@H](CCC(=O)O)NC(=O)C(C)(C)NC(=O)[C@@H](N)Cc1c[nH]cn1)[C@@H](C)O)C(C)C)C(=O)N[C@@H](C)C(=O)N[C@@](C)(Cc1ccccc1)C(=O)N[C@H](C(=O)N[C@H](C(=O)N[C@@](C)(CCCCN)C(=O)NCC(=O)NCC(N)=O)C(C)C)C(C)C [compound 111] (H-H[Aib]EGS[αMeF]TSDV[αMeS]S[αMeF]LEGEK([AEEA-AEEA-γGlu-C18 diacid])A[αMeK]E[αMeF]IA[αMeF]VV[αMeK]GG-NH2; N-terminus assumed)
[1]
  EC50: 17 pM
